In US8633243B2, “Forms of CDDO methyl ester” (priority 2007, dated 2014):
Marks after values point to notes of the source that are not given here.

Experiments:
[1] = Stress experiments (physical stability under temperature, humidity, grinding; XRPD after stress); assay type: physicochemical; settings: for KF Result after stress: Karl Fischer water; for weight loss under stress: 3 days
Protocol: A solid sample was placed into a stainless steel milling rotor with a small metal ball. […] The sample was then ground at 30 Hz on a Retesh type MM220 mixermill for approximately 20 minutes. The resulting solids were isolated and analyzed.
A solid sample was placed into a stainless steel grinding jar with a grinding rod. The sample was then ground at 15 Hz on a SPEX Certiprep model 6750 cryomill for a set amount of time. The grinding jar was submerged in a bath of liquid nitrogen during the experiment. The solids were isolated and analyzed.
Solids were stressed under different temperature and/or relative humidity (RH) environments for a measured time period. Specific RH values were achieved by placing the samples inside sealed chambers containing saturated salt solutions or inside ESPEC temperature and humidity cabinets. The salt solutions were selected and prepared following an ASTM standard procedure. Samples were analyzed by XRPD immediately after removal from the stress environment. […]

[2] = Hygroscopicity (dynamic vapor sorption/desorption); assay type: physicochemical
Protocol: Moisture sorption/desorption data were collected on a VTI SGA-100 Vapor Sorption Analyzer. Sorption and desorption data were collected over a range of 5% to 95% relative humidity (RH) at 10% RH intervals under a nitrogen purge. Samples were not dried prior to analysis. Equilibrium criteria used for analysis were less than 0.010% weight change in 5 minutes, with a maximum equilibration time of 3 hours if the weight criterion was not met. Data were not corrected for the initial moisture content of the samples. Sodium chloride and polyvinypyrrolidine were used as calibration standards.

[3] = cynomolgus monkey, in vivo, po, 4.1 mg/kg
[4] = Phases 2 and 3: single oral administration of CDDO-methyl ester capsule formulations, concentrations by HPLC-MS/MS; assay type: in vivo, Cynomolgus monkeys, Macaca fascicularis; settings: phases 2 and 3, PO capsule 10 mg/kg; compared with the micronized and nanocrystalline Form A formulations
Protocol: An aqueous suspension of nanocrystalline CDDO-Me was produced, starting from a sample of micronized Form A material. A Retsch® Planatory Ball Mill model PM 400, containing zirconia balls of 2 mm average size, was charged with 25 gm of micronized CDDO-Me (average particle size distribution of 6.1 uM), 5 gm of docusate sodium, 1 gm of Tween 80, and 68.3 gm of water. Grinding was initiated at approximately 400 RPM and was continued for 2 hours. A particle size distribution (PSD) determination using a laser light granulometer indicated an average PSD of 0.37 μM was obtained. To this thick suspension were added 1 gm of microcrystalline cellulose and 0.2 gm of […] gum, with brief mixing, and the suspension was stored refrigerated. […] The table below presents the quantitative composition of both formulations. […] The quantitative composition of each formulation appears below. […] Serial blood samples (approximately 1 mL) were removed from the femoral vein or artery of each animal and transferred into tubes containing K2-EDTA at each of the following time points (actual times were recorded): All samples were thoroughly mixed following collection and placed on wet ice, prior to being refrigerated at approximately 4° C. CDDO-methyl ester concentrations in blood were analysed by HPLC-MS/MS.

[5] = 25° C./75% RH, 28 d, micronized
[6] = 40° C./48% RH, 28 d, micronized
[7] = 60° C./23% RH, 28 d, micronized

| hygroscopicity [2] | AUC, Mean [3] [ng·h/mL] | AUC, Median [3] [ng·h/mL] | AUC, Range (min-max) [3] [ng·h/mL] | SMILES | XRPD RESULT after stress [1, 5] | KF Result after stress [1, 5] [%] | XRPD RESULT after stress [1, 6] | KF Result after stress [1, 6] | XRPD RESULT after stress [1, 7] | KF Result after stress [1, 7] [%] | XRPD RESULT after stress ([1]; 80° C./P2O5, 28 d, micronized) | KF Result after stress ([1]; 80° C./P2O5, 28 d, micronized) [%] | also measured |
| --- | --- | --- | --- | --- | --- | --- | --- | --- | --- | --- | --- | --- | --- |
| – | – | – | – | COC(=O)[C@]12CCC(C)(C)C[C@H]1[C@H]1C(=O)C=C3[C@@]4(C)C=C(C#N)C(=O)C(C)(C)[C@@H]4CC[C@@]3(C)[C@]1(C)CC2 [FORM B PRODUCED BY ISOLATION FROM ETHYL ACETATE AND ETHANOL ] | Form B | 0.58 | Form B | 0.39% | ~50% Form A + | 0.02 | 100% Form A | 0.37 | form after stress testing (summary of Table 15) ([1]; 28 days of storage, Form A seen at 60° C. and above): formation of Form A |
| – | – | – | – | COC(=O)[C@]12CCC(C)(C)C[C@H]1[C@H]1C(=O)C=C3[C@@]4(C)C=C(C#N)C(=O)C(C)(C)[C@@H]4CC[C@@]3(C)[C@]1(C)CC2 [FORM B PRODUCED VIA EXAMPLE 11 PROCEDURE] | Form B | 0.77 | Form B | 0.00^b | Form B | 0.04 | Form B | 1.1 | XRPD RESULT after stress ([1]; 25° C./75% RH, 14 d, micronized): Form B; XRPD RESULT after stress ([1]; 80° C./P2O5, 14 d, micronized): Form B |
| not hygroscopic | 40.4 | 37.4 | 21 to 60.4 | COC(=O)C12CCC(C)(C)CC1C1C(=O)C=C3C4(C)C=C(C#N)C(=O)C(C)(C)C4CCC3(C)C1(C)CC2 (stereo not shown) [Form A, methyl 2-cyano-3,12-dioxoleana-1,9(11)-dien-28-oate] | – | – | – | – | – | – | – | – | MB / DVS weight change ([2]; 5% to 95% RH sorption/desorption): Negligible weight change throughout experiment; Post MB XRPD ([2]; material after DVS experiment): Form A; weight loss under stress ([1]; 25° C./60% RH): 3 days: 1.5% loss; XRPD RESULT after stress ([1]; 25° C./60% RH, 7 days): remained Form A; weight loss under stress ([1]; 40° C./75% RH): 3 days: 1.4% loss; XRPD RESULT after stress ([1]; 40° C./75% RH, 7 days): remained Form A; XRPD RESULT after stress ([1]; 20 min grind, dry (ball mill)): remained Form A; XRPD RESULT after stress ([1]; 20 min wet grind, water (ball mill)): remained Form A |
| not hygroscopic | 177.2 | 175.0 | 158 to 228 | COC(=O)C12CCC(C)(C)CC1C1C(=O)C=C3C4(C)C=C(C#N)C(=O)C(C)(C)C4CCC3(C)C1(C)CC2 (stereo not shown) [Form B, methyl 2-cyano-3,12-dioxoleana-1,9(11)-dien-28-oate] | – | – | – | – | – | – | – | – | % Form B over Form A (AUC), Mean [3]: 439%; % Form B over Form A (AUC), Median [3]: 523%; % Form B over Form A (AUC), Range (min-max) [3]: 262-723%; median exposure greater than the equivalent dose of Form A [3]: approximately 520%; XRPD RESULT after stress ([1]; 22° C./97% RH, 7 days): remained Form B; XRPD RESULT after stress ([1]; 40° C./75% RH, 8 days): remained Form B; XRPD RESULT after stress ([1]; 80° C./0% RH, ~24 hours): remained Form B; XRPD RESULT after stress ([1]; 195° C., 5 minutes, ambient RH (74% RH)): remained Form B; XRPD RESULT after stress ([1]; 200° C., 60 minutes, ambient RH (74% RH), min = minor): Form A plus minor Form B; form after cryogrinding ([1]; cryogrinding 1 hour): stable and does not change Form; bioavailability, comparison of formulations [4]: significantly better bioavailability |
